# Reference: patent US9365862B1, “Herbicide resistant sorghum mutants” (NUtech Ventures, priority 2011, dated 2016)
# What was measured:
# Experiment in all cases: Greenhouse bioassay for resistance to ALS-inhibiting herbicides (dry matter, visual injury)
# Type in all cases: in vivo, Shattercane (Sorghum bicolor subsp. X drummondii)
# [1] = tested on: shattercane biotype P8-30 (Mutant C); conditions: for resistance of the biotype to the herbicide: biotype P8-30 (Mutant C), relative to the wild-type, dry matter and visual ratings; for growth reduction: biotype P8-30, growth in the three weeks after herbicide application
# Method: (§1) The bioassay experiment was conducted in a greenhouse on the East Campus of the University of Nebraska-Lincoln, in Lincoln, Nebr. The experimental design was a randomized complete block. Shattercane seed was planted in 0.9 L square plastic pots in Miracle-Gro® Moisture Control® Potting Mix (The Scotts Company LLC, Marysville, Ohio). The photoperiod was 15/9 light/dark with supplemental light provided by sodium halide lamps. Greenhouse temperatures were maintained at 24±2 C (day) and 19±2 C (night). Shattercane was thinned to 1 plant per pot when it reached the 2 leaf stage. Herbicide treatments (Table 1 in Appendix I) were applied when the shattercane reached the V4 growth stage and was approximately 12 cm tall. Individual plants ranged from growth stage V3 to V5, and in height from 7 to 19 cm. At least one tiller had formed on most plants by the time of application. Herbicides were applied using an 8001 even flat fan nozzle at 207 kPa in a single-tip track sprayer located in the greenhouse facility. The application rate was 187 l/ha, and treatment solutions were prepared in distilled water. Visual injury ratings were made 7, 14 and 21 days after treatment on a scale of 0 to 100, where 0 represents no injury and 100 represents plant death. At 21 DAT, plants were harvested at the soil surface, dried for 48 h at 70 C, and weighed to determine dry matter. Dry matter data for each experimental unit was divided by the average dry matter of the untreated control plants of that biotype and multiplied by 100 to determine relative percent biomass to the untreated control. Dry matter data for each experimental unit was also divided by the average dry matter data of the glyphosate-treated plants of that biotype to determine growth in the three weeks after herbicide application. Data were subjected to ANOVA using Proc GLM of SAS 9.1 (SAS Institute Inc., Cary, N.C.). The Run by Herbicide by Population interaction was significant for each variable, so runs were analyzed separately. The Herbicide by Population interaction was also significant for each run and each variable, so data were analyzed by herbicide to describe differences among the populations. Treatment means were separated using Duncan's Multiple Range test.
# [2] = tested on: shattercane biotype P2-205 (Mutant A); conditions: dry matter and visual ratings
# Method: as §1
# [3] = tested on: shattercane biotype P9-102 (Mutant B); conditions: dry matter and visual ratings
# Method: as §1
# [4] = tested on: shattercane biotype 5-4Farm (Mutant D); conditions: plants harvested 21 DAT
# Method: as §1
# [5] = tested on: wild type shattercane; conditions: wild type biotype, plants harvested 21 DAT
# Method: as §1
Structure (SMILES),resistance of the biotype to the herbicide [1],resistance of the biotype to the herbicide [2],resistance of the biotype to the herbicide [3],further results
CC(C)C1(C)N=C(c2nc3ccccc3cc2C(=O)O)NC1=O (stereo not drawn) [Imazaquin],resistance,–,–,–
CCc1cnc(C2=NC(C)(C(C)C)C(=O)N2)c(C(=O)O)c1 (stereo not drawn) [Imazethapyr],resistance,–,–,–
COc1cc(OC)nc(Oc2cccc(Oc3nc(OC)cc(OC)n3)c2C(=O)O)n1 [bispyribac],partial resistance,–,–,resistance of the biotype to the herbicide ([1]; listed as Bispyribac): resistance; growth reduction [1]: approximately 65%
COc1nc(C)nc(NC(=O)NS(=O)(=O)c2ccccc2Cl)n1 [chlorsulfuron],resistance,resistant,resistance,resistance of the biotype to the herbicide ([2]; listed as Chlorsulfuron): resistance
COc1cc(OC)nc(NC(=O)NS(=O)(=O)c2cc(NC=O)ccc2C(=O)N(C)C)n1 [foramsulfuron],resistance,partially resistant,resistant,resistance of the biotype to the herbicide ([2]; listed as Foramsulfuron): resistance; resistance of the biotype to the herbicide ([3]; listed as Foramsulfuron): resistance
COCc1cnc(C2=NC(C)(C(C)C)C(=O)N2)c(C(=O)O)c1 (stereo not drawn) [imazamox],resistance,partially resistant,–,resistance of the biotype to the herbicide ([2]; listed as Imazamox): resistance
COc1cc(OC)nc(NC(=O)NS(=O)(=O)c2ncccc2C(=O)N(C)C)n1 [nicosulfuron],resistance,–,resistant,–
COc1cnc(OC)n2nc(NS(=O)(=O)c3c(OCC(F)F)cccc3C(F)(F)F)nc12 [penoxsulam],–,–,–,effect on dry matter [4]: did not reduce dry matter; effect on dry matter [5]: did not reduce dry matter
O=C(Nc1nc(OC(F)F)cc(OC(F)F)n1)NS(=O)(=O)c1ccccc1C(=O)O [primisulfuron],resistance,partially resistant,partially resistant,resistance of the biotype to the herbicide ([2]; listed as Primisulfuron): resistance; resistance of the biotype to the herbicide ([3]; listed as Primisulfuron): resistance
CCCOc1nn(C(=O)[N-]S(=O)(=O)c2ccccc2C(=O)OC)c(=O)n1C.[Na+] [propoxycarbazone],resistance,resistant,resistant,resistance of the biotype to the herbicide ([2]; listed as Propoxycarbazone): resistance; resistance of the biotype to the herbicide ([3]; listed as Propoxycarbazone): resistance
CCS(=O)(=O)c1cccnc1S(=O)(=O)NC(=O)Nc1nc(OC)cc(OC)n1 [rimsulfuron],partial resistance,–,–,resistance of the biotype to the herbicide ([1]; listed as Rimsulfuron): resistance; growth reduction [1]: ~84%
COc1nn(C(=O)NS(=O)(=O)c2c(C(=O)O)csc2C)c(=O)n1C [thiencarbazone],resistance,partially resistant,partially resistant,resistance of the biotype to the herbicide ([2]; listed as Thiencarbazone): resistance; resistance of the biotype to the herbicide ([3]; listed as Thiencarbazone): resistance
